In patent US10791742B2, “Plant growth regulator compounds” (SYNGENTA PARTICIPATIONS AG, priority 2016, dated 2020):

Columns and labels:
[1] = test system: corn plants (variety NK OCTET); experiment: Reduced plant water use in corn (foliar spray, pot weighing); assay type: in vivo; conditions: for % WU 0 DAA (PM): Table A3 (comparison trial), 0 DAA p.m.
Description: (§1) Compounds were tested for their effect on reducing plant water use as follows. The compounds were applied by foliar spray to 12 day old corn plants (variety NK OCTET) grown in controlled environment plant growth chambers. All compounds were applied using an emulsifiable concentrate (EC) formulation that was diluted to the desired concentrations with water containing 0.4% of the adjuvant rape seed methyl ester. Plant water use during the day was assessed by repeated weighing of the pots in which the plants were grown before and after application of the compounds at the indicated times (expressed in days after application (DAA)). The water use data before application was used to correct any differences in water use arising due to non-treatment effects (e.g. due to differences in plant size). The untransformed water use values were subjected to an analysis of covariance, fitting the effect of treatment and using the baseline water use 1 day before application as a covariate. Application of the chemicals (0 DAA) took place approximately between 08:00 and 09:30 a.m. Water use (WU) was measured within day time (chamber light is on 06:00 to 20:00) at these timepoints: 0 DAA a.m. (10:30-12:50), 0 DAA p.m. (14:00-19:50).

[2] = test system: soybean plants (variety S20-G7); experiment: Reduced plant water use in soybean (foliar spray, pot weighing); assay type: in vivo; conditions: Table A4, 125 μM foliar spray, water use vs negative control, average of 6 pots; for % WU 0 DAA (AM): 0 DAA a.m. (10:30-12:50); for % WU 0 DAA (PM): 0 DAA p.m. (14:00-19:50)
Description: as §1, with “soybean” for “corn”, “S20-G7)” for “NK OCTET)”, “concentration” for “concentrations”, “additional surfactant (EXTRAVON 1 g/20 L).” for “0.4% of the adjuvant rape seed methyl ester.”, “covariate.” for “covariate. Application of the chemicals (0 DAA) took place approximately between 08:00 and 09:30 a.m. Water use (WU) was measured within day time (chamber light is on 06:00 to 20:00) at these timepoints: 0 DAA a.m. (10:30-12:50), 0 DAA p.m. (14:00-19:50).”
Application of the chemicals (0 DAA) took place approximately between 08:00 and 09:30 a.m. Water use (WU) was measured within day time (chamber light is on 06:00 to 20:00) at these timepoints: 0 DAA a.m. (10:30-12:50), 0 DAA p.m. (14:00-19:50).

[3] = corn, 500 μM foliar spray, water use vs negative control, average of 6 pots

SMILES	% WU 0 DAA (PM) [1, 3] [%]	% WU 0 DAA (AM) [2] [%]	% WU 0 DAA (PM) [2] [%]	other results
CCN1C(=O)CC(C)c2cc(CNS(=O)(=O)c3ccccc3)ccc21 (centres unmarked) [A, reference compound]	−24			
CCN1C(=O)OC(C)c2cc(CNS(=O)(=O)c3ccccc3)ccc21 (centres unmarked) [Compound 13.001, N-[(1-ethyl-4-methyl-2-oxo-4H-3,1-benzoxazin-6-yl)methyl]-benzenesulfonamide]	−40			ABA agonist potency compared with compound A (in words) ([1]; concluded from Table A3, corn water use at 500 μM): more potent ABA agonist than dihydroquinolinone compound A
CCCN1C(=O)OC(C)c2cc(CNS(=O)(=O)c3ccccc3)ccc21 (centres unmarked) [Compound 14.001, N-[(4-methyl-2-oxo-1-propyl-4H-3,1-benzoxazin-6-yl)methyl]-benzenesulfonamide]		−49	−55	
CCCN1C(=O)OC(C)c2cc(CNS(=O)(=O)c3ccc(Cl)s3)ccc21 (centres unmarked) [Compound 14.048, 5-chloro-N-[(4-methyl-2-oxo-1-propyl-4H-3,1-benzoxazin-6-yl)methyl]thiophene-2-sulfonamide]		−51	−55	
CCN1C(=O)OC(C)c2cc(CNS(=O)(=O)c3ccccc3)cc(F)c21 (centres unmarked) [Compound 20.001, N-[(1-ethyl-8-fluoro-4-methy1-2-oxo-4H-3,1-benzoxazin-6-yl)methyl]benzenesulfonamide]				% WU 0 DAA (AM) ([1]; Table A2 (further trial), corn, 500 μM foliar spray, water use vs negative control, 0 DAA a.m. (10:30-12:50), average of 6 pots): −37%; % WU ODAA (PM) ([1]; Table A2 (further trial), corn, 500 μM foliar spray, water use vs negative control, 0 DAA p.m. (14:00-19:50), average of 6 pots): −42%
CCCN1C(=O)OC(C)c2cc(CNS(=O)(=O)c3ccccc3)cc(F)c21 (centres unmarked) [Compound 25.001, N-[(8-fluoro-4-methyl-2-oxo-1-propyl-4H-3,1-benzoxazin-6-yl)methyl]benzenesulfonamide]		−48	−53	
